Read-outs that look alike come from different tables or passages of the source. [ ]: non-standard residue; d: D form. ava = not defined here
Key:
[1] = tested on: C3H/HeJ mice (H-2^k); antibodies against the PGCC(95–104) epitope peptide; conditions: mouse, in vivo
[2] = tested on: C3H/HeJ mice (H-2^k); antibodies against the PGCC(95–104) epitope peptide; conditions: mouse, in vivo; remark: listed apart in the source
SJL/J (H-2s) mice = conditions: mouse, in vivo; cited from earlier work
mice = conditions: mouse, in vivo; cited from earlier work

Ac-LRMK-ava-IAYLKQATAK-NH2 (Ac-LRMK[ava]IAYLKQATAK-NH2; reading uncertain; also: printed as Ac-LRMK-ava-IAYLKQATAK-NH2) [Ii-Key/PGCC]
Antibody induction (ELISA), Dilution^−1 1620 [1]: 0.071 | Antibody induction (ELISA), Dilution^−1 4860 [1]: 0.024 | antibody titers against PGCC epitope [1]: Significantly greater antibody titers | antibody titers against PGCC epitope [2]: Significantly greater antibody titers

HCLGKWLGHPDKFVGI [PL139–154]
mice with severe clinical and histological EAE (SJL/J (H-2s) mice): 3 of 20

MOG35–55
encephalitogenic potential (specific T-cell responses, EAE) (mice): induced specific T-cell responses and EAE

— US7179645B2 (priority 2002, dated 2007)
